Experimental findings from patent US11351164B2, “Inhibitors of indoleamine 2,3-dioxygenase and methods of their use” (BRISTOL-MYERS SQUIBB COMPANY, priority 2016, dated 2022) are described below.

T1 sequence (P14902 whole entry): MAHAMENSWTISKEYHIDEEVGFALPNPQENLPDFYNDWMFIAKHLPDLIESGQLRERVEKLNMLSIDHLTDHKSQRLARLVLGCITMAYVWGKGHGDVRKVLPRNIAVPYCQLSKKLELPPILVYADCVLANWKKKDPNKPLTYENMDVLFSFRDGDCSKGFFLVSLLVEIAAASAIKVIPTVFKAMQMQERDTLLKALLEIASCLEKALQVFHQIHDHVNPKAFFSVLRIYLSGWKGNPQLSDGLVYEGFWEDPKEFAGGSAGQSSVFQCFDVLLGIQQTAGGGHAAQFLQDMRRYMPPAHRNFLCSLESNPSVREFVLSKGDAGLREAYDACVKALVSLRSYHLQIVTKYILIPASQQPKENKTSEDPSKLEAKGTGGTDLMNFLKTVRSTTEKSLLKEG

This assay has as its target T1, human IDO1 (Homo sapiens, UniProt P14902).
T1 construct: expressed in transfected cells
The assay is described as follows: IDO inhibition assay in HEK293 cells stably expressing human IDO1 (kynurenine, Ehrlich reagent, absorbance 490 nm). In kind it is cell-based. Conditions: 20 hours incubation, read-out: IDO1 HEK Human IC50. As for the experimental part:
HEK293 cells were transfected with a pCDNA-based mammalian expression vector harboring human IDO1 cDNA (NM 002164.2) by electroporation. They were cultured in medium (DMEM with 10% FBS) containing 1 mg/ml G418 for two weeks. Clones of HEK293 cells that stably expressed human IDO1 protein were selected and expanded for IDO inhibition assay. The human IDO1/HEK293 cells were seeded at 10,000 cells per 50 μL per well with RPMI/phenol red free media contains 10% FBS in a 384-well black wall clear bottom tissue culture plate (Matrix Technologies LLC) 100 nL of certain concentration of compound was then added to each well using ECHO liquid handling systems. The cells were incubated for 20 hours in 37° C. incubator with 5% CO2. The compound treatments were stopped by adding trichloroacetic acid (Sigma-Aldrich) to a final concentration at 0.2%. The cell plate was further incubated at 50° C. for 30 minute. The equal volume supernatant ([…]) and 0.2% (w/v) Ehrlich reagent (4-dimethylaminobenzaldehyde, Sigma-Aldrich) in glacial acetic acid were mixed in a new clear bottom 384-well plate. This plate was then incubated at room temperature for 30 minute. The absorbance at 490 nm was measured on Envision plate reader. Compound IC50 values were calculated using the counts of 500 nM of a reference standard treatment as one hundred percent inhibition, and counts of no compound but DMSO treatment as zero percent inhibition.
Broadly, the IC50 is the midpoint of a concentration-inhibition curve. As for `CCC(Nc1nnc(-c2ccc(OC)cc2)o1)[C@H]1CC[C@@H](c2ccnc3ccc(F)cc32)CC1` (mixture of isomers) [Example 48, N-(1-((1s,4s)-4-(6-Fluoroquinolin-4-yl)cyclohexyl)propyl)-5-(4-methoxyphenyl)-1,3,4-oxadiazol-2-amine], the IC50 came to 0.0036 µM. In the case of `CCC(Nc1nnc(-c2ccc(OC)cc2)o1)[C@H]1CC[C@@H](c2ccnc3ccc(F)cc32)CC1` (single isomer, unassigned) [Example 49-1, N-(1-((1s,4s)-4-(6-Fluoroquinolin-4-yl)cyclohexyl)propyl)-5-(4-methoxyphenyl)-1,3,4-oxadiazol-2-amine], the IC50 stood at 0.0009 µM.

As to `CCC(Nc1nnc(-c2ccc(OC)cc2)o1)[C@H]1CC[C@@H](c2ccnc3ccc(F)cc32)CC1` (single isomer, unassigned) [Example 49-2, N-(1-((1s,4s)-4-(6-Fluoroquinolin-4-yl)cyclohexyl)propyl)-5-(4-methoxyphenyl)-1,3,4-oxadiazol-2-amine], the IC50 was found to be 0.177 µM. In the case of `CCC(c1nnc(Nc2ccc(OC)cc2)[nH]1)C1CCC(c2ccnc3ccc(F)cc23)CC1` (single isomer, unassigned) [Example 55, 5-(1-(4-(6-Fluoroquinolin-4-yl)cyclohexyl)propyl)-N-(4-methoxyphenyl)-4H-1,2,4-triazol-3-amine] it was 2 µM; in that of `CCC(c1nnc(Nc2ccc(OC)cc2)[nH]1)C1CCC(c2ccnc3ccc(F)cc23)CC1` (single isomer, unassigned) [Example 56, 5-(1-(4-(6-Fluoroquinolin-4-yl)cyclohexyl)propyl)-N-(4-methoxyphenyl)-4H-1,2,4-triazol-3-amine], 0.0184 µM. Consider `CCOCC(Nc1nnc(-c2ccc(OC)cc2)o1)[C@H]1CC[C@@H](c2ccnc(F)c2C)CC1` (single isomer, unassigned) [Example 57-2, N-(2-Ethoxy-1-((1s,4s)-4-(2-fluoro-3-methylpyridin-4-yl)cyclohexyl)ethyl)-5-(4-methoxyphenyl)-1,3,4-oxadiazol-2-amine], for which the 50% inhibitory concentration (IC50) was 0.33 µM. In the case of `CCC(Nc1nnc(-c2ccc(F)cc2)o1)C1CCC(c2ccnc3ccc(C(F)(F)F)cc23)CC1` (single isomer, unassigned) [Example 61, 5-(4-fluorophenyl)-N-(1-((1s,4s)-4-(6-(trifluoromethyl)quinolin-4-yl)cyclohexyl)propyl)-1,3,4-oxadiazol-2-amine] it was 0.811 µM; in that of `CCC(Nc1nnc(-c2ccc(OC)cc2)o1)[C@H]1CC[C@@H](c2ccnc(F)c2C)CC1` (single isomer, unassigned) [Example 63-2, N-(1-((1s,4s)-4-(2-Fluoro-3-methylpyridin-4-yl)cyclohexyl)propyl)-5-(4-methoxyphenyl)-1,3,4-oxadiazol-2-amine], 0.141 µM. `C[C@@H](c1nnc(-c2ccc(Cl)cc2)o1)[C@H]1CC[C@@H](c2ccnc3ccc(F)cc32)CC1` [Example 4, 2-(4-Chlorophenyl)-5-((R)-1-((1s,4s)-4-(6-fluoroquinolin-4-yl)cyclohexyl)ethyl)-1,3,4-oxadiazole]: the IC50 turned out to be 0.167 µM. The same measure for `C[C@@H](c1nnc(-c2ccc(C#N)cc2)s1)[C@H]1CC[C@@H](c2ccnc3ccc(F)cc32)CC1` [Example 6, 4-(5-((R)-1-((1s,4S)-4-(6-Fluoroquinolin-4-yl)cyclohexyl)ethyl)-1,3,4-thiadiazol-2-yl)benzonitrile]: 0.037 µM; for `C[C@@H](c1nnc(Nc2ccc(F)cc2)s1)[C@H]1CC[C@@H](c2ccnc3ccc(F)cc32)CC1` [Example 7, N-(4-Fluorophenyl)-5-((R)-1-((1s,4S)-4-(6-fluoroquinolin-4-yl)cyclohexyl)ethyl)-1,3,4-thiadiazol-2-amine]: 0.543 µM. Regarding `COc1ccc(-c2nnc([C@H](C)[C@H]3CC[C@@H](c4ccnc5ccc(F)cc54)CC3)[nH]2)cc1` [Example 9], the IC50 turned out to be 0.192 µM.

With `Cc1ccc(-c2nnc([C@H](C)[C@H]3CC[C@@H](c4ccnc5ccc(F)cc54)CC3)[nH]2)cc1F` [Example 10, 6-fluoro-4-((1S,4s)-4-((R)-1-(5-(3-fluoro-4-methylphenyl)-4H-1,2,4-triazol-3-yl)ethyl)cyclohexyl)quinoline], the IC50 came to 0.747 µM. As to `Cc1ccc(-c2nnc([C@H](C)[C@H]3CC[C@@H](c4ccnc5ccc(F)cc54)CC3)[nH]2)cc1` [Example 15, 6-fluoro-4-((1S,4s)-4-((R)-1-(5-p-tolyl-4H-1,2,4-triazol-3-yl)ethyl)cyclohexyl)quinoline], the IC50 is 0.124 µM. On to `Cc1ccc(-c2nnc([C@H](C)[C@H]3CC[C@@H](c4ccnc5ccc(F)cc54)CC3)o2)cc1F` [Example 16, 2-(3-fluoro-4-methylphenyl)-5-((R)-1-((1s,4S)-4-(6-fluoroquinolin-4-yl)cyclohexyl)ethyl)-1,3,4-oxadiazole], for which the IC50 came out at 2 µM. In the case of `C[C@@H](c1nnc(-c2ccc(F)c(Cl)c2)o1)[C@H]1CC[C@@H](c2ccnc3ccc(F)cc32)CC1` [Example 17, 2-(3-chloro-4-fluorophenyl)-((R)-1-((1s,4S)-4-(6-fluoroquinolin-4-yl)cyclohexyl)ethyl)-1,3,4-oxadiazole], the IC50 was 0.239 µM. In the case of `COc1ccc(Nc2nnc([C@H](C)[C@H]3CC[C@@H](c4ccnc5ccc(F)cc54)CC3)[nH]2)cc1` [Example 20, 5-((R)-1-((1s,4s)-4-(6-Fluoroquinolin-4-yl)cyclohexyl)ethyl)-N-(4-methoxyphenyl)-4H-1,2,4-triazol-3-amine] it was 0.135 µM; in that of `C[C@@H](c1nnc(Nc2ccc(F)cc2)[nH]1)[C@H]1CC[C@@H](c2ccnc3ccc(F)cc32)CC1` [Example 21, N-(4-Fluorophenyl)-5-((R)-1-((1s,4s)-4-(6-fluoroquinolin-4-yl)cyclohexyl)ethyl)-4H-1,2,4-triazol-3-amine], 0.0682 µM; in that of `C[C@@H](Nc1nnc(-c2ccc(Cl)cc2)o1)[C@H]1CC[C@@H](c2ccnc3ccc(F)cc32)CC1` [Example 23, 5-(4-Chlorophenyl)-N—((R)-1-((1s,4S)-4-(6-fluoroquinolin-4-yl)cyclohexyl)ethyl)-1,3,4-oxadiazol-2-amine], 0.0453 µM.

For the compound `COc1ccc(-c2nnc(N[C@H](C)[C@H]3CC[C@@H](c4ccnc5ccc(F)cc54)CC3)o2)cc1` [Example 25, N—((R)-1-((1s,4S)-4-(6-Fluoroquinolin-4-yl)cyclohexyl)ethyl)-5-(4-methoxyphenyl)-1,3,4-oxadiazol-2-amine], the IC50 is 0.0096 µM.

Regarding `COc1ccc(-c2nnc(N[C@H](C)[C@H]3CC[C@@H](c4ccnc5ccc(F)cc54)CC3)s2)cc1` [Example 26, N—((R)-1-((1s,4S)-4-(6-Fluoroquinolin-4-yl)cyclohexyl)ethyl)-5-(4-methoxyphenyl)-1,3,4-thiadiazol-2-amine], the half-maximal inhibitory concentration (IC50) is 0.0619 µM. In the case of `C[C@@H](Nc1nnc(C2CCCCC2)o1)[C@H]1CC[C@@H](c2ccnc3ccc(F)cc32)CC1` [Example 27, 5-Cyclohexyl-N—((R)-1-((1s,4S)-4-(6-fluoroquinolin-4-yl)cyclohexyl)ethyl)-1,3,4-oxadiazol-2-amine] it was 0.009 µM. In the case of `C[C@@H](Nc1nnc(C2CC2)o1)[C@H]1CC[C@@H](c2ccnc3ccc(F)cc32)CC1` [Example 28, 5-cyclopropyl-N-((R)-1-((1s,4S)-4-(6-fluoroquinolin-4-yl)cyclohexyl)ethyl)-1,3,4-oxadiazol-2-amine], the IC50 came to 0.0371 µM. In the case of `C[C@@H](Nc1nnc(-c2ccc(F)cc2)o1)[C@H]1CC[C@@H](c2ccnc3ccc(F)cc32)CC1` [Example 31, 5-(4-fluorophenyl)-N-((R)-1-((1s,4S)-4-(6-fluoroquinolin-4-yl)cyclohexyl)ethyl)-1,3,4-oxadiazol-2-amine] it was 0.0427 µM; in that of `Cc1csc(-c2nnc(N[C@H](C)[C@H]3CC[C@@H](c4ccnc5ccc(F)cc54)CC3)o2)n1` [Example 32, N-((R)-1-((1s,4S)-4-(6-fluoroquinolin-4-yl)cyclohexyl)ethyl)-5-(4-methylthiazol-2-yl)-1,3,4-oxadiazol-2-amine], 0.0035 µM; in that of `COc1ccc(-c2nnc(N[C@H](C)[C@H]3CC[C@@H](c4ccnc5ccc(F)cc54)CC3)o2)cn1` [Example 33, N-((R)-1-((1s,4S)-4-(6-fluoroquinolin-4-yl)cyclohexyl)ethyl)-5-(6-methoxypyridin-3-yl)-1,3,4-oxadiazol-2-amine], 0.0641 µM. For `COCc1nnc(N[C@H](C)[C@H]2CC[C@@H](c3ccnc4ccc(F)cc43)CC2)o1` [Example 34, N-((R)-1-((1s,4S)-4-(6-fluoroquinolin-4-yl)cyclohexyl)ethyl)-5-(methoxymethyl)-1,3,4-oxadiazol-2-amine], the half-inhibitory concentration (IC50) came to 0.0386 µM. The same measure for `C[C@@H](Nc1nnc(-c2ccc(-c3nccs3)cc2)o1)[C@H]1CC[C@@H](c2ccnc3ccc(F)cc32)CC1` [Example 35, N-((R)-1-((1s,4S)-4-(6-fluoroquinolin-4-yl)cyclohexyl)ethyl)-5-(4-(thiazol-2-yl)phenyl)-1,3,4-oxadiazol-2-amine]: 1 µM.
